Test results from patent US6794491B1, “Polypeptides, their production and use” (Takeda Chemical Industries, Ltd., priority 1995, dated 2004).
Entries after “also recorded” stand apart in the source; their conditions may differ. Where no end group is shown, it is not given here.

Columns and labels:
[1] = biological target: T1, full-length receptor protein expressed CHO cells (CHO-19P2); human pituitary receptor protein (hGR3) (Homo sapiens, UniProt P49683); assay: release of arachidonic acid metabolites from CHO-19P2 cells; assay type: cell-based; conditions: amount of [3H]arachidonic acid metabolites, 10^−12 M-10^−6 M in 0.05% BSA-HBSS
T1 construct: to construct a full-length receptor protein expression plasmid pAKKO-19P2; expressed in transfected cells; host or cells: CHO dhfr- cells transfected with pAKKO-19P2 (CHO-19P2; clone CHO-19P2-9)
T1 sequence (P49683 1-370): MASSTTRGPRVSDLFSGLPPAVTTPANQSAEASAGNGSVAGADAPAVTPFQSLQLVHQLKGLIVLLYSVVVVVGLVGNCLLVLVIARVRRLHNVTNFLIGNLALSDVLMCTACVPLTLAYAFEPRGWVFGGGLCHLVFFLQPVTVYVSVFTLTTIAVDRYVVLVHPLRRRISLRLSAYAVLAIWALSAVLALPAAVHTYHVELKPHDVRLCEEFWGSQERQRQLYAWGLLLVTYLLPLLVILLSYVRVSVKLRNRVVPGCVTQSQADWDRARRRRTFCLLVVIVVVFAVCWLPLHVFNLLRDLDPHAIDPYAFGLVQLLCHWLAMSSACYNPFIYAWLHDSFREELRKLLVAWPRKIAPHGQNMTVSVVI
Description: The full-length receptor protein-expressed CHO cells and mock CHO cells were seeded in a 24-well plate, 0.5×10^5 cells/well, and cultured for 24 hours. Then, [^3H] arachidonic acid was added at a final concentration of 0.25 μCi/well. Sixteen (16) hours after addition of [^3H] arachidonic acid, the cells were rinsed with 0.05% BSA-HBSS and the above-mentioned crude peptide fraction was added, 400 μl/well. The mixture was incubated at 37° C. for 30 minutes and a 300 μl portion of the reaction mixture (400 μl) was added to 4 ml of a scintillator and the amount of [^3H] arachidonic acid metabolite released into the reaction mixture was determined with a scintillation counter.
The activity of the peptide (19P2-L31) synthesized in Example 21 to specifically release arachidonic acid metabolites from CHO-19P2 cells was assayed in the same manner as Example 11. The synthetic peptide was dissolved in degassed dH20 at a concentration of 10^−3M and diluted with 0.05% BSA-HBSS and the activity to promote release of arachidonic acid metabolites from CHO-19P2 cells at each concentration was assayed using the amount of [^3H]arachidonic acid metabolites as the indicator.
The activity of the synthetic equivalent (19P2-L20) of natural peptide P-2 as synthesized in Example 23 to specifically promote release of arachidonic acid metabolites from CHO-19P2 cells was determined as in Example 11. Thus, the synthetic peptide was dissolved in degassed dH2O at a final concentration of 10^−3M and this solution was serially diluted with 0.05% BAS-HBSS. The activity to specifically promote release of arachidonic acid metabolites from CHO-19P2 cells at each concentration was assayed using the amount of [^3H]arachidonic acid metabolites as the indicator.

[2] = glucose-induced increase in plasma insulin concentration; assay type: in vivo, Male Wistar rats; conditions: bolus injection in the jugular vein with glucose 86 mg/rat
Description: Male Wistar rats (8-10w) were anesthetized by i.p. injection of pentobarbital (65 mg/kg). Glucose alone (86 mg/rat) or glucose and 19P2-L31 (675 pmol, 2.25 nmol, 6.75 nmol and 67.5 nmol/rat) were administered by bolus injection in the jugular vein. Blood samples were withdrawn from the contralateral vein. Plasma insulin concentration was determined with a radioimnunoassay kit (Amersham).

[3] = plasma growth hormone (GH) level in freely moving rats, GHRH-induced; assay type: in vivo, male Wistar rats; conditions: 50 nmol into the third ventricle, 5 μg/kg GHRH 10 min later
Description: Mature male Wistar rats were anesthetized with pentobarbital 50 mg/kg i.p. and, as in Example 41, a stainless-steel guide cannula AG-12 (0.4 mm in. dia., 0.5 mm out. dia., EICOM) was implanted in position with its tip situated in the upper part of the third ventricle. After the operation the rats were housed in individual cages and kept for at least 3 days for recuperation and, then, a cannula (30 cm long, 0.5 mm in. dia., 0.9 mm out. dia., Natsume Seisakusho) filled with heparin (200 U/ml)-containing saline was inserted into the right atrium from the right jugular vein under pentobarbital anesthesia. The rats were maintained overnight for complete arousal from anesthesia and then transferred to transparent acrylic cages (30 cm×30 cm×35 cm). A 1 ml tuberculin syringe with a 24-G needle (both by Termo) was connected to the cannula inserted in the atrium and 300 μl of blood was drawn. To prevent clotting, the syringe was filled with 20 μl of saline containing 200 U/ml of heparin beforehand. […] The concentrations of GH in the plasma were determined by radioimmunoassay.
The results were expressed as a mean±S.E.M. To test for significant difference between the group treated with 19P2-L31 dissolved in PBS and the control group treated with PBS alone, Student's t-test was used. […]

With “Ser-Arg-Ala-His-Gln-His-Ser-Met-Glu-Ile-Arg-Thr-Pro-Asp-Ile-Asn-Pro-Ala-Trp-Tyr-Ala-Gly-Arg-Gly-Ile-Arg-Pro-Val-Gly-Arg-Phe-NH2 (SRAHQHSMEIRTPDINPAWYAGRGIRPVGRF-NH2) [19P2-L31, synthetic ligand polypeptide]” as the substance, how does the “arachidonic acid metabolite-releasing activity” value [1] read?
Its value is “concentration-dependent arachidonic acid metabolite-releasing activity was detected over the range of 10^−12M-10^−6M; also recorded: found in a concentration-dependent manner”.

And the “glucose-induced increase in plasma insulin concentration (first and second phase)” value (“glucose-induced increase” below) ([2]; 675 pmol/rat)?
The value was “partially inhibited”.

What about the “glucose-induced increase” value ([2]; 2.25 nmol/rat) of the same substance?
The value was “partially inhibited”.

And the “glucose-induced increase” value ([2]; 6.75 nmol/rat)?
Its value is “partially inhibited”.

What about the “glucose-induced increase” value ([2]; 67.5 nmol/rat) of the same substance?
Its value is “completely inhibited”.

What about the “GHRH-induced elevation of plasma GH” value [3] of the same substance?
Its value is “significantly inhibited”.
